# Activity calls are given as the source filed them. The rule behind the calls is not given here.
# Experiments:
# Assay type in all cases: cell-based
# [1] = tested on: CHO-K1; assay: Activation of wild type BK calcium channel (unknown origin) expressed in CHO-K1 cells assessed as increase in channel open probability by whole cell patch-clamp technique relative to control; conditions: Homo sapiens
# [2] = tested on: CHO-K1; assay: Activation of wild type BK calcium channel (unknown origin) expressed in CHO-K1 cells assessed as increase in channel open probability at 1 uM at +20 mV holding potential by whole cell patch-clamp technique (reference value: 0.58 +/- 0.03%); conditions: Homo sapiens
# [3] = tested on: CHO-K1; assay: Activation of wild type BK calcium channel STREX domain-deleted mutant (unknown origin) expressed in CHO-K1 cells assessed as increase in channel open probability at 10 uM at +20 mV holding potential by whole cell patch-clamp technique (reference value: 0.7 +/- 0.1%); conditions: Homo sapiens
# [4] = tested on: CHO-K1; assay: Activation of wild type BK calcium channel (unknown origin) expressed in CHO-K1 cells assessed as increase in channel open probability at 0.1 uM at +20 mV holding potential by whole cell patch-clamp technique (reference value: 0.58 +/- 0.03%); conditions: Homo sapiens
# [5] = tested on: CHO-K1; assay: Extracellular activation of wild type BK calcium channel (unknown origin) expressed in CHO-K1 cells assessed as increase in whole cell currents at 10 uM by whole cell patch-clamp technique; conditions: Homo sapiens
# [6] = tested on: CHO-K1; assay: Activation of wild type BK calcium channel (unknown origin) expressed in CHO-K1 cells assessed as increase in channel open probability at 10 uM at +20 mV holding potential by whole cell patch-clamp technique (reference value: 0.58 +/- 0.03%); conditions: Homo sapiens
# [7] = tested on: CHO-K1; assay: (§1) Activation of wild type BK calcium channel (unknown origin) expressed in CHO-K1 cells assessed as increase in channel open probability at +20 mV holding potential by whole cell patch-clamp technique; conditions: Homo sapiens
# [8] = as §1
# [9] = tested on: CHO-K1; assay: Activation of wild type BK calcium channel (unknown origin) expressed in CHO-K1 cells assessed as increase in channel open probability at 5 uM at +20 mV holding potential by whole cell patch-clamp technique (reference value: 0.58 +/- 0.03%); conditions: Homo sapiens
smiles,measurement,setting,value
CCCCCCCCC/C=C/CC/C=C/[C@@H](O)[C@H](CO[C@@H]1O[C@H](CO)[C@@H](O)[C@H](O)[C@H]1O)NC(=O)[C@H](O)CCCCCCCCCCCCCCCCCC,fold change (FC),[1],3.12
CCCCCCCCC/C=C\CC/C=C/[C@@H](O)[C@H](CO[C@@H]1O[C@H](CO)[C@@H](O)[C@H](O)[C@H]1O)NC(=O)[C@H](O)CCCCCCCCCCCCCCCCCCCC,Activity,[2],2.4%
same,Activity,[3],0.9%
same,fold change (FC),[1],5.34
same,Activity,[4],0.65%
same,Activity,[5],Active
same,Activity,[6],4.2%
same,Activity,[7],Dose-dependent effect
same,EC50,[8],1 µM
same,Activity,[9],3.3%
CCCCCCCCC/C=C\CC/C=C/[C@@H](O)[C@H](CO[C@@H]1O[C@H](CO)[C@@H](O)[C@H](O)[C@H]1O)NC(=O)[C@H](O)CCCCCCCCCCCCCCCC,fold change (FC),[1],1.15
CCCCCCCCC/C=C\CC/C=C/[C@@H](O)[C@H](CO[C@@H]1O[C@H](CO)[C@@H](O)[C@H](O)[C@H]1O)NC(=O)[C@H](O)CCCCCCCCCCCCCCCCCC,fold change (FC),[1],1.89
CCCCCCCCC/C=C/CC/C=C/[C@@H](O)[C@H](CO[C@@H]1O[C@H](CO)[C@@H](O)[C@H](O)[C@H]1O)NC(=O)[C@H](O)CCCCCCCCCCCCCCCC,fold change (FC),[1],2.03
